# pIC50: −log10 of the molar value.
# Tests used:
# [1] = system: synovial sarcoma cell lines (SYO1, Yamato, HS-SY-II, and ASKA); assay: Growth of synovial sarcoma cell lines (confluency, crystal violet, colonies; Example 3); assay type: cell-based; conditions: FIGS. 5-7, 1 μM in crystal violet assay
# Description: (§1) Cells were treated with DMSO or the BRD9 degrader, Compound 1, at indicated concentrations, and proliferation was monitored from day 7 to day 14 by measuring confluency over time using an IncuCyte live cell analysis system (FIG. 5). Growth medium and compounds were refreshed every 3-4 days.
# (§2) Cells were seeded into 12-well plates and treated with DMSO, 1 μM BRD9 inhibitor, Compound 2 (also known as BI-7273, see Martin et al, J Med Chem. 59(10):4462-4475 (2016); see structure of Compound 2 below), or 1 μM BRD9 degrader, Compound 1.
# (§3) The number of cells was optimized for each cell line. Growth medium and compounds were refreshed every 3-5 days. SYO1, Yamato, A549, 293T and HS-SY-II cells were fixed and stained at day 11. ASKA cells were fixed and stained at day 23. Staining was done by incubation with crystal violet solution (0.5 g Crystal Violet, 27 ml 37% Formaldehyde, 100 mL 10×PBS, 10 mL Methanol, 863 dH20 to 1 L) for 30 min followed by 3× washes with water and drying the plates for at least 24 h at room temperature. Subsequently plates were scanned on an Odyssey CLx Imaging system (FIG. 6).
# (§4) Cells were seeded into 96-well ultra low cluster plate (Costar, #7007) in 200 μL complete media and treated at day 2 with DMSO, Staurosporin, or BRD9 degarder, Compound 1, at indicated doses (FIG. 7). Media and compounds were changed every 5 d and cell colonies were imaged at day 14.
# [2] = system: non-synovial control cancer cell lines (293T, A549, G401); assay: Growth of non-synovial control cancer cell lines (Example 3); assay type: cell-based; conditions: FIGS. 5-7
# Description: as §1, §2, §3, §4
# [3] = system: synovial sarcoma cell lines (SYO1, HS-SY-II, and ASKA); assay: Growth of synovial sarcoma cell lines, crystal violet day 14 (Example 4); assay type: cell-based; conditions: for inhibition of growth of synovial sarcoma cell lines: SYO1, HS-SY-II, ASKA, treated daily, day 14, FIG. 8
# Description: (§5) Procedure: Cells were seeded into 6-well or 12-well plates and were treated daily with a BRD9 degrader (Compound 1), a bromo-domain BRD9 binder (Compound 2), E3 ligase binder (lenalidomide), DMSO, or staurosporin (positive control for cell killing), at indicated concentrations. The number of cells was optimized for each cell line. Growth media was refreshed every 5 days. By day 14, medium was removed, cells were washed with PBS, and stained using 500 μL of 0.005% (w/v) crystal violet solution in 25% (v/v) methanol for at least 1 hour at room temperature. Subsequently plates were scanned on an Odyssey CLx Imaging system.
# [4] = system: non-synovial control cancer cell lines (RD, HCT116, and Calu6); assay: Growth of non-synovial control cancer cell lines, crystal violet day 14 (Example 4); assay type: cell-based; conditions: treated daily, day 14, FIG. 9
# Description: as §5
# SYO1 cells [5] = assay: Cell cycle analysis, Click-iT Plus EdU Flow Cytometry Assay; assay type: cell-based; conditions: SYO1, 200 nM or 1 μM, 8 or 13 days, compared to DMSO and lenalidomide
# Description: (§6) Procedure: SYO1 cells were treated for 8 or 13 days with DMSO, a BRD9 degrader (Compound 1) at 200 nM or 1 μM, or an E3 ligase binder (lenalidomide) at 200 nM. Compounds were refreshed every 5 days. Cell cycle analysis was performed using the Click-iT™ Plus EdU Flow Cytometry Assay (Invitrogen). The apoptosis assay was performed using the Annexin V-FITC Apoptosis Detection Kit (Sigma A9210). Assays were performed according to the manufacturer's protocol.
# SYO1 cells [6] = assay: Apoptosis assay, Annexin V-FITC Apoptosis Detection Kit; assay type: cell-based; conditions: SYO1, 200 nM or 1 μM, 8 days, compared to DMSO controls
# Description: as §6
# BRD9 bromodomain = BRD9 bromodomain (Homo sapiens (Human), UniProt Q9H8M2); assay: BRD9 bromodomain TR-FRET competition binding assay; conditions: Table 4; competition with biotinylated ligand, 3 nM Flag-BRD9, 90 minutes
# Chain of BRD9 bromodomain (Q9H8M2 133-239): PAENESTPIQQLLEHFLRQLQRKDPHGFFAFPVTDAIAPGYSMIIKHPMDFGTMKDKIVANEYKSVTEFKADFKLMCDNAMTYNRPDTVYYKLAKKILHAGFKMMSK
# Method in brief: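 TEV-cleaved Flag-BRD9 (P133-K239, 3 nM) competed against 3.75 nM biotinylated ligand, with 7.5 nM APC-streptavidin and 0.2 nM Eu-W1024 anti-FLAG, in HEPES pH 7.4, NaCl, TCEP, Tween-20, BSA. Compounds were serially diluted 3-fold; after 90 min at room temperature the 665/615 nm emission ratio was read.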
# [7] = target: Nanoluciferase-BRD9 fusion protein (Homo sapiens (Human), UniProt Q9H8M2); assay: SYO1 BRD9 NanoLuc degradation assay; assay type: cell-based; conditions: Table 5A, SYO-1 cells expressing 3×FLAG-NLuc-BRD9, 6 hours; for DC50: read-out: SYO1 BRD9-NanoLuc degradation IC50
# Chain of Nanoluciferase-BRD9 fusion protein (Q9H8M2 whole entry, the tested form may be a part): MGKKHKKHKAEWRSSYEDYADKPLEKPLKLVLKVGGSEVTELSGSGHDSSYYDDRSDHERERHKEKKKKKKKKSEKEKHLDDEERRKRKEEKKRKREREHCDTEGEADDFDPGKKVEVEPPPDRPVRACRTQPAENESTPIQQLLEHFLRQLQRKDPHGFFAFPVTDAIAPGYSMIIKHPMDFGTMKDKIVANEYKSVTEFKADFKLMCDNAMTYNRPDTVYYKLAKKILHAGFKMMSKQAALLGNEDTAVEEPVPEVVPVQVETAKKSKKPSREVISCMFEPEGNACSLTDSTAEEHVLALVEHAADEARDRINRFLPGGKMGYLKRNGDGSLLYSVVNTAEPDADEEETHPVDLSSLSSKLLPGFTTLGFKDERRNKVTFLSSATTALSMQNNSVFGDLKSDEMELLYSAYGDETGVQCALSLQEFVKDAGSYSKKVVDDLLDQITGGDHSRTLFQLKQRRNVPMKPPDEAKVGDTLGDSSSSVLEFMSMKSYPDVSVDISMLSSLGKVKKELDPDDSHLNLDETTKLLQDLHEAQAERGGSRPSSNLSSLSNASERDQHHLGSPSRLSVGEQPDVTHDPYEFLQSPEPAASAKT
# Method in brief: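 Degradation was read as loss of nanoluciferase signal (Nano-Glo) after 6 h compound exposure in a stable SYO-1 line carrying 3×FLAG-NLuc-BRD9 (8000 cells/well). Normalised between DMSO (high) and a 1 μM known BRD9 degrader (low).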
pIC50 (BRD9 bromodomain),DC50 [7],pIC50 [7],SMILES,also measured
> 8.00,10 to 100 nM,–,COc1cc(-c2cn(C)c(=O)c3cnccc23)cc(OC)c1CN(C)CC1CC12CCN(C(=O)CCOCCOc1ccc3c(c1)C(=O)N(C1CCC(=O)NC1=O)C3=O)CC2 (stereo not drawn) [Compound D172],–
7.00 to 8.00,–,> 8.00,COc1cc(-c2cn(C)c(=O)c3cnccc23)cc(OC)c1CN(C)C1CCC12CCN(C(=O)CCOCCOc1ccc3c(c1)C(=O)N(C1CCC(=O)NC1=O)C3=O)CC2 (stereo not drawn) [Compound D173],–
7.00 to 8.00,–,6.00 to 7.00,COc1cc(-c2cn(C)c(=O)c3cnccc23)cc(OC)c1CN(C)CC1CC2(C1)CN(C(=O)CCOCCOc1ccc3c(c1)C(=O)N(C1CCC(=O)NC1=O)C3=O)C2 (stereo not drawn) [Compound D174],–
7.00 to 8.00,–,7.00 to 8.00,COc1cc(-c2cn(C)c(=O)c3cnccc23)cc(OC)c1CN(C)CC1CC2(CCN(C(=O)CCOCCOc3ccc4c(c3)C(=O)N(C3CCC(=O)NC3=O)C4=O)CC2)C1 (stereo not drawn) [Compound D175],–
> 8.00,–,> 8.00,COc1cc(-c2cn(C)c(=O)c3cnccc23)cc(OC)c1CN(C)CC1CC2CN(C(=O)CCOCCOc3ccc4c(c3)C(=O)N(C3CCC(=O)NC3=O)C4=O)C[C@@H]2C1 (stereo partly drawn) [Compound D176],–
> 8.00,10 to 100 nM,–,COc1cc(-c2cn(C)c(=O)c3cnccc23)cc(OC)c1CN(C)CC1CC2CN(C(=O)CCOCCOc3cccc4c3C(=O)N(C3CCC(=O)NC3=O)C4=O)C[C@H]2C1 (stereo partly drawn) [Compound D177],–

# Continued, compound first:
SMILES,pIC50 (BRD9 bromodomain),DC50 [7],pIC50 [7],also measured
COc1cc(-c2cn(C)c(=O)c3cnccc23)cc(OC)c1CN(C)CC(=O)NCCOCCOCCNc1cccc2c1C(=O)N(C1CCC(=O)NC1=O)C2=O (stereo not drawn) [Compound 1],–,–,–,inhibition of growth of synovial sarcoma cell lines [1]: inhibition of the growth of the cells; inhibition of growth of non-synovial control cancer cell lines [2]: does not result in inhibition of the growth; inhibition of growth of synovial sarcoma cell lines [3]: inhibition of the growth of the cells; overall comparison of growth inhibition in synovial cell lines ([3]; compared with Compound 2 and lenalidomide): most significant growth inhibition; inhibition of growth of non-synovial control cancer cell lines [4]: did not result in inhibition of the growth; numbers of cells in the S-phase of the cell cycle (SYO1 cells [5]): reduced numbers of cells in the S-phase; numbers of early- and late-apoptotic cells (SYO1 cells [6]): increased numbers of early- and late-apoptotic cells
COc1cc(-c2cn(C)c(=O)c3cnccc23)cc(OC)c1CN(C)C [Compound 2],–,–,–,inhibition of growth of synovial sarcoma cell lines [1]: inhibition of the growth of the cells; inhibition of growth of non-synovial control cancer cell lines [2]: does not result in inhibition of the growth; inhibition of growth of synovial sarcoma cell lines [3]: inhibition of the growth of the cells; inhibition of growth of non-synovial control cancer cell lines [4]: did not result in inhibition of the growth
COc1cc(-c2cn(C)c(=O)c3cnccc23)cc(OC)c1CN(C)CC1CC2CN(C(=O)CCOCCOc3cccc4c3C(=O)N(C3CCC(=O)NC3=O)C4=O)C[C@@H]2C1 (stereo partly drawn) [Compound D166],> 8.00,10 to 100 nM,–,–
COc1cc(-c2cn(C)c(=O)c3cnccc23)cc(OC)c1CN(C)CC1CC2(CCN(C(=O)CCOCCOc3ccc4c(c3)C(=O)N(C3CCC(=O)NC3=O)C4=O)CC2)O1 (stereo not drawn) [Compound D167],> 8.00,–,> 8.00,–
COc1cc(-c2cn(C)c(=O)c3cnccc23)cc(OC)c1CN(C)C1CC2CN(C(=O)CCOCCOc3ccc4c(c3)C(=O)N(C3CCC(=O)NC3=O)C4=O)CC2C1 (stereo not drawn) [Compound D169],> 8.00,10 to 100 nM,–,–
COc1cc(-c2cn(C)c(=O)c3cnccc23)cc(OC)c1CN(C)C1CCC2CN(C(=O)CCOCCOc3ccc4c(c3)C(=O)N(C3CCC(=O)NC3=O)C4=O)CC21 (stereo not drawn) [Compound D170],7.00 to 8.00,–,> 8.00,–
COc1cc(-c2cn(C)c(=O)c3cnccc23)cc(OC)c1CN(C)C1CC2CC1CN2C(=O)CCOCCOc1ccc2c(c1)C(=O)N(C1CCC(=O)NC1=O)C2=O (stereo not drawn) [Compound D171],7.00 to 8.00,–,> 8.00,–

# Reference: patent US11414416B1, “Compounds and uses thereof” (Foghorn Therapeutics Inc., priority 2019, dated 2022)
